Test results reported in the NIST ThermoML archive (doi:10.1021/je100148h).
± gives the expanded uncertainty stated by the source.

Experiment: xn = mol fraction of the nth substance listed
Conditions: Fluid (supercritical or subcritical phases), Burnett expansion method

CCC [propane] + O=C=O
Conditions	mass density [kg/m3]
319.99 K, 766.06 kPa, x2 = 0.8017	13.1764 ± 0.011
320 K, 410.29 kPa, x2 = 0.8017	6.9285 ± 0.012
320 K, 561.41 kPa, x2 = 0.8017	9.5546 ± 0.012
320 K, 1040.9 kPa, x2 = 0.8017	18.1699 ± 0.011
320 K, 1137.2 kPa, x2 = 0.5158	20.5385 ± 0.012
320 K, 1406.4 kPa, x2 = 0.8017	25.056 ± 0.012
320 K, 1885.5 kPa, x2 = 0.8017	34.5507 ± 0.013
320 K, 2500.6 kPa, x2 = 0.8017	47.6423 ± 0.014
320 K, 3266.5 kPa, x2 = 0.8017	65.693 ± 0.015
320.01 K, 158.39 kPa, x2 = 0.8017	2.6416 ± 0.012
320.01 K, 177.71 kPa, x2 = 0.5158	2.9791 ± 0.011
320.01 K, 217.81 kPa, x2 = 0.8017	3.6431 ± 0.012
320.01 K, 244.02 kPa, x2 = 0.5158	4.1102 ± 0.011
320.01 K, 299.21 kPa, x2 = 0.8017	5.0239 ± 0.012
320.01 K, 334.43 kPa, x2 = 0.5158	5.6704 ± 0.011
320.01 K, 457.2 kPa, x2 = 0.5158	7.8226 ± 0.011
320.01 K, 622.82 kPa, x2 = 0.5158	10.7917 ± 0.011
320.01 K, 844.37 kPa, x2 = 0.5158	14.8878 ± 0.011
320.01 K, 1518.1 kPa, x2 = 0.5158	28.332 ± 0.013
320.01 K, 1999.6 kPa, x2 = 0.5158	39.0832 ± 0.014
320.01 K, 2584 kPa, x2 = 0.5158	53.9126 ± 0.015
329.98 K, 579.89 kPa, x2 = 0.8017	9.5517 ± 0.013
329.99 K, 791.85 kPa, x2 = 0.8017	13.1719 ± 0.012
329.99 K, 1457.4 kPa, x2 = 0.8017	25.0477 ± 0.012
329.99 K, 3418.1 kPa, x2 = 0.8017	65.6701 ± 0.015
330 K, 308.75 kPa, x2 = 0.8017	5.0223 ± 0.014
330 K, 423.55 kPa, x2 = 0.8017	6.9261 ± 0.013
330 K, 1958.2 kPa, x2 = 0.8017	34.5379 ± 0.012
330 K, 2604.9 kPa, x2 = 0.8017	47.625 ± 0.013
330 K, 4401.1 kPa, x2 = 0.8017	90.5446 ± 0.016
330.01 K, 163.4 kPa, x2 = 0.8017	2.6407 ± 0.014
330.01 K, 183.36 kPa, x2 = 0.5158	2.9774 ± 0.011
330.01 K, 224.73 kPa, x2 = 0.8017	3.6418 ± 0.014
330.01 K, 251.86 kPa, x2 = 0.5158	4.1078 ± 0.011
330.01 K, 345.31 kPa, x2 = 0.5158	5.667 ± 0.011
330.01 K, 472.35 kPa, x2 = 0.5158	7.8181 ± 0.011
330.01 K, 644.04 kPa, x2 = 0.5158	10.7856 ± 0.011
330.01 K, 874.2 kPa, x2 = 0.5158	14.879 ± 0.011
330.01 K, 1077.1 kPa, x2 = 0.8017	18.1629 ± 0.012
330.01 K, 1179.4 kPa, x2 = 0.5158	20.5259 ± 0.011
330.01 K, 1578.5 kPa, x2 = 0.5158	28.3153 ± 0.012
330.01 K, 2086.8 kPa, x2 = 0.5158	39.0593 ± 0.013
330.01 K, 2711.7 kPa, x2 = 0.5158	53.8795 ± 0.015
330.01 K, 3442.6 kPa, x2 = 0.5158	74.3214 ± 0.018
339.99 K, 598.29 kPa, x2 = 0.8017	9.5479 ± 0.015
339.99 K, 817.54 kPa, x2 = 0.8017	13.1668 ± 0.014
339.99 K, 1508.1 kPa, x2 = 0.8017	25.0378 ± 0.013
340 K, 231.59 kPa, x2 = 0.8017	3.6405 ± 0.016
340 K, 436.79 kPa, x2 = 0.8017	6.9234 ± 0.015
340 K, 2030.2 kPa, x2 = 0.8017	34.5251 ± 0.012
340 K, 2708.2 kPa, x2 = 0.8017	47.606 ± 0.013
340 K, 3567.9 kPa, x2 = 0.8017	65.643 ± 0.014
340 K, 4621.3 kPa, x2 = 0.8017	90.5058 ± 0.019
340.01 K, 168.38 kPa, x2 = 0.8017	2.6397 ± 0.016
340.01 K, 189.01 kPa, x2 = 0.5158	2.9763 ± 0.011
340.01 K, 259.67 kPa, x2 = 0.5158	4.1062 ± 0.011
340.01 K, 318.3 kPa, x2 = 0.8017	5.0202 ± 0.015
340.01 K, 487.5 kPa, x2 = 0.5158	7.8151 ± 0.011
340.01 K, 665.18 kPa, x2 = 0.5158	10.7812 ± 0.011
340.01 K, 903.91 kPa, x2 = 0.5158	14.873 ± 0.011
340.01 K, 1113.1 kPa, x2 = 0.8017	18.156 ± 0.013
340.01 K, 1221.3 kPa, x2 = 0.5158	20.5179 ± 0.011
340.01 K, 1638.3 kPa, x2 = 0.5158	28.3036 ± 0.012
340.01 K, 2172.9 kPa, x2 = 0.5158	39.0436 ± 0.013
340.01 K, 2837.3 kPa, x2 = 0.5158	53.8584 ± 0.014
340.01 K, 3628.8 kPa, x2 = 0.5158	74.2902 ± 0.02
340.01 K, 4509 kPa, x2 = 0.5158	102.472 ± 0.023
340.01 K, 5849.8 kPa, x2 = 0.8017	124.787 ± 0.022
340.02 K, 356.19 kPa, x2 = 0.5158	5.6647 ± 0.011
350.01 K, 173.33 kPa, x2 = 0.8017	2.6389 ± 0.018
350.01 K, 194.63 kPa, x2 = 0.5158	2.9748 ± 0.011
350.01 K, 267.49 kPa, x2 = 0.5158	4.1042 ± 0.011
350.01 K, 367.05 kPa, x2 = 0.5158	5.662 ± 0.011
350.01 K, 502.56 kPa, x2 = 0.5158	7.8112 ± 0.011
350.01 K, 616.66 kPa, x2 = 0.8017	9.5444 ± 0.016
350.01 K, 686.24 kPa, x2 = 0.5158	10.776 ± 0.011
350.01 K, 843.17 kPa, x2 = 0.8017	13.1618 ± 0.016
350.01 K, 933.45 kPa, x2 = 0.5158	14.8658 ± 0.011
350.01 K, 1149 kPa, x2 = 0.8017	18.1499 ± 0.015
350.01 K, 1263 kPa, x2 = 0.5158	20.5077 ± 0.011
350.01 K, 1558.6 kPa, x2 = 0.8017	25.0284 ± 0.014
350.01 K, 1697.7 kPa, x2 = 0.5158	28.2897 ± 0.012
350.01 K, 2101.9 kPa, x2 = 0.8017	34.5131 ± 0.013
350.01 K, 2258.2 kPa, x2 = 0.5158	39.0243 ± 0.012
350.01 K, 2810.8 kPa, x2 = 0.8017	47.5894 ± 0.013
350.01 K, 2961.5 kPa, x2 = 0.5158	53.8306 ± 0.014
350.01 K, 3716.3 kPa, x2 = 0.8017	65.6181 ± 0.013
350.01 K, 3812 kPa, x2 = 0.5158	74.2525 ± 0.018
350.01 K, 4782.9 kPa, x2 = 0.5158	102.417 ± 0.024
350.01 K, 4838.8 kPa, x2 = 0.8017	90.4734 ± 0.018
350.01 K, 5812.8 kPa, x2 = 0.5158	141.262 ± 0.028
350.02 K, 238.49 kPa, x2 = 0.8017	3.6392 ± 0.018
350.02 K, 327.8 kPa, x2 = 0.8017	5.0187 ± 0.017
350.02 K, 450.01 kPa, x2 = 0.8017	6.9209 ± 0.017
350.02 K, 6175.3 kPa, x2 = 0.8017	124.74 ± 0.021
360.01 K, 200.24 kPa, x2 = 0.5158	2.9738 ± 0.011
360.01 K, 275.27 kPa, x2 = 0.5158	4.1028 ± 0.011
360.01 K, 377.87 kPa, x2 = 0.5158	5.66 ± 0.011
360.01 K, 517.62 kPa, x2 = 0.5158	7.8085 ± 0.011
360.01 K, 707.21 kPa, x2 = 0.5158	10.7723 ± 0.011
360.01 K, 962.87 kPa, x2 = 0.5158	14.8606 ± 0.011
360.01 K, 1184.7 kPa, x2 = 0.8017	18.1432 ± 0.016
360.01 K, 1304.5 kPa, x2 = 0.5158	20.5005 ± 0.011
360.01 K, 1608.9 kPa, x2 = 0.8017	25.0192 ± 0.015
360.01 K, 1756.6 kPa, x2 = 0.5158	28.2797 ± 0.012
360.01 K, 2173.2 kPa, x2 = 0.8017	34.4994 ± 0.014
360.01 K, 2342.9 kPa, x2 = 0.5158	39.0102 ± 0.012
360.01 K, 2912.6 kPa, x2 = 0.8017	47.5708 ± 0.013
360.01 K, 3084.3 kPa, x2 = 0.5158	53.8108 ± 0.013
360.01 K, 3992.6 kPa, x2 = 0.5158	74.2241 ± 0.017
360.01 K, 5052 kPa, x2 = 0.5158	102.377 ± 0.032
